From the METLIN SMRT retention time set (Domingo-Almenara et al. 2019) come the findings set out here.

The nature of this series: gradient 5% acetonitrile 3 min, to 50% in 2 min, to 85% in 15 min, held 3 min, 100 µL/min. To be noted: column: Zorbax Extend-C18 2.1 x 50 mm; eluents: water / acetonitrile, 0.1% formic acid. Summed up:
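Retention times come from adduct peaks that were picked computationally and then checked by hand. The standards, pure and pooled in mixtures of ~100 molecules, were run on a Zorbax Extend-C18 column (2.1 × 50 mm, 1.8 μm) at 100 μL/min with water and acetonitrile, each with 0.1% formic acid. Detection was by quadrupole time-of-flight mass spectrometry in positive and negative ionization mode, with a dead volume of 40 μL and a dwell volume of 900 μL.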
For `CCN1C(=O)c2cc(S(=O)(=O)Nc3cc(F)ccc3F)ccc2Oc2cccnc21`, the RP-LC retention time is 980 s.
With `COc1cc(OC)cc(-c2nnc(Cc3nc(-c4ccc(F)cc4)no3)o2)c1`, the RP-LC retention time was 1040 s.
Take `CCc1noc2nc(C)n(CC(=O)NCc3ccccc3C)c(=O)c12`: the RP-LC retention time stood at 782 s.
The figure for `Cc1ccc(-c2cc3c4nnc(CCC(=O)NCc5ccccc5C(F)(F)F)n4ccn3n2)cc1C` is 952 s.
In turn, `CCOc1ccc(NC(=O)c2cnc(N3CCN(C)CC3)nc2N)cc1` showed an RP-LC retention time of 602 s.
In the case of `CC1CCN(C(=O)c2nnc(-c3ccc(S(=O)(=O)N4CCCCC4)cc3)o2)CC1`, the RP-LC retention time amounted to 1060 s.
On to `Nc1c(-c2nnc(SCC(=O)N3CCOCC3)n2CC2CCCO2)sc2ncccc12` (stereo not drawn), for which the RP-LC retention time was 641 s.
Next, `Cc1cccc(CNC(=O)c2ncn3c2C(=O)N(C2CC2)C(C)(C(=O)NCc2cccc(C)c2)C3)c1` (stereo not drawn): 832 s; `CCCc1cnc2c(c1SC(C(C)=O)C(=O)N(C)C)c(=O)n(C)c(=O)n2C` (stereo not drawn): 720 s; `O=C(NCCCS(=O)(=O)N1CCN(c2ncccn2)CC1)c1ccncc1`: 568 s.
Compound `COc1ccccc1N1CCN(C(=O)c2cn3ccccc3n2)CC1` showed an RP-LC retention time of 603 s.
Compound `CCCn1c(=O)sc2cc(S(=O)(=O)N3CCC(C(=O)NC4CCCCC4)CC3)ccc21` showed an RP-LC retention time of 967 s.
`Fc1cc(F)cc(-c2nnc(Cc3nc(-c4ccc(Cl)cc4)no3)o2)c1` displayed an RP-LC retention time of 1130 s.
`O=C(c1csc(S(=O)(=O)N2CCC(C(=O)N3CCOCC3)CC2)c1)N1CCOCC1`: the RP-LC retention time is 620 s.
Take `CCOC(=O)C1CCN(c2nnc(-c3nnc(CC)o3)c3ccccc23)CC1`: the RP-LC retention time stood at 977 s.
`Cc1ccccc1-n1ccn(Cc2nc(-c3ccc(C(C)(C)C)cc3)no2)c(=O)c1=O` showed an RP-LC retention time of 1050 s.
In turn, `CNC(=O)Cc1csc(NC(=O)c2ccc(OCC(=O)C3CC3)cc2)n1` came in with an RP-LC retention time of 631 s.
In turn, `N#Cc1ccc(Cl)cc1NC(=O)C(=O)NCC(O)C1CCCCC1` (stereo not drawn) had an RP-LC retention time of 825 s.
`Cc1ccc(C2Cn3cnc(C(=O)N4CCC(C(=O)NC5CCCCC5)CC4)c3CO2)cc1` (stereo not drawn) yielded an RP-LC retention time of 794 s.
In turn, `O=C(NC1CCCCC1)c1ccc(CN2CCN(Cc3ccccc3)C(=O)C2=O)cc1` came in with an RP-LC retention time of 787 s.
As to `COC(=O)c1cnn2c(C)c(Cc3ccccc3)c(C)nc12`, the RP-LC retention time was found to be 835 s.
The figure for `O=C(NCCN1CCOCC1)C1CN(C(=O)c2ccccc2)CC12CCCCC2` (stereo not drawn) is 605 s; for `Cc1ccc(-c2nnc(-c3nc(NCCc4cccs4)c4ccccc4n3)o2)cc1` it is 1120 s; for `COc1ccc(CN2CC3(CCN(S(=O)(=O)c4c(C)nn(C)c4C)CC3)C2=O)cc1` it is 761 s.
In turn, `CCN(CC)S(=O)(=O)c1ccc2c(c1)N(CC(=O)NC1CCCCCC1)C(=O)C1CCCCN21` (stereo not drawn) came in with an RP-LC retention time of 1050 s.
For `OC(CN1CCN(c2cccc(Cl)c2)CC1)C(c1ccccc1)c1ccccc1` (stereo not drawn), the RP-LC retention time stood at 885 s.
Turning to `CCN1C(=O)c2ccccc2Oc2ccc(C(=O)NCCc3ccc(Cl)cc3)cc21`, the RP-LC retention time amounted to 998 s.
`Cc1ccc(CNC(=O)Cn2nc3c4cc(-c5cc(C)ccc5C)nn4ccn3c2=O)cc1` had an RP-LC retention time of 985 s.
Regarding `CCOc1ccc(NC(=O)C2CCCN2S(=O)(=O)c2cc3c(cc2C)NC(=O)CO3)cc1` (stereo not drawn), the RP-LC retention time was determined as 770 s.
Next, `COc1ccc(NC(=O)Cn2c(=O)c(CCC(=O)NCC(C)C)nc3ccccc32)cc1OC`: 756 s; `CC(=O)OC1CCN(C(=O)NC(C)(C)C)CC1`: 696 s.
The figure for `CCCn1c(=O)sc2cc(S(=O)(=O)N3CCC(C(=O)NC(C)C)CC3)ccc21` is 818 s; for `CCCn1cc(C(=O)N2CCN(C3CCCCC3)CC2)c2cccnc21` it is 603 s.
Next, `COc1ccc(S(=O)(=O)Nc2cccn3c(C4CCC4)nnc23)cc1Cl`: 822 s; `Cc1ccccc1-c1nc(Cn2c(C)nc3onc(C)c3c2=O)c(C)o1`: 1120 s; `CCOc1ccc(C(=O)N2CCc3c(c(-c4nc(C5CC5)no4)nn3C)C2)cc1`: 837 s.
With `Cc1ccc(C(C)NC(=O)c2cn3ccncc3n2)c(C)c1` (stereo not drawn), the RP-LC retention time is 787 s.
Compound `Cn1c(CNC(=O)CSc2nnc3c4ccccc4nc(-c4ccco4)n23)nc2ccccc21` yielded an RP-LC retention time of 632 s.
The compound `Cc1ccc2[nH]cc(CCN3CC(C(=O)Nc4cccc(F)c4)CC3=O)c2c1` (stereo not drawn) returned an RP-LC retention time of 842 s.
For the compound `CC1(C(=O)NCc2ccccc2)Cn2cnc(C(=O)N3CCOCC3)c2C(=O)N1C1CC1` (stereo not drawn), the RP-LC retention time was 605 s.
Take `CCCCNC(=O)CN1C(=O)C2CCCCN2c2ccc(S(=O)(=O)N3CCCC3)cc21` (stereo not drawn): the RP-LC retention time amounted to 873 s.
`O=C1CCCC(=O)N1CCS(=O)(=O)N1CCN(Cc2nc3ccccc3[nH]2)CC1` came in with an RP-LC retention time of 554 s.
Regarding `Cc1cc(N2CCN(C(=O)Cc3ccc(F)cc3)CC2)nc2nncn12`, the RP-LC retention time was 596 s.
For the compound `COc1ccc(NC(=O)C2c3cc(OC)c(OC)cc3C(=O)N(C)C2c2cccs2)cc1OC` (stereo not drawn), the RP-LC retention time worked out at 744 s.
Next, `CCc1cccc(C)c1Nc1c(-c2ccc(C)cc2)nc2nc(C)cc(C)n12`: 880 s; `Cc1cc(C)c2c(N3CCSCC3)nc(C(=O)NCc3cccs3)nc2n1`: 746 s; `Cc1cc(-c2nnc(-c3ccc(F)cc3)o2)c(C)n1CC(=O)Nc1ccccc1`: 977 s.
Next, `O=C1c2cccc(NCCCNCCO)c2C(=O)c2cccc(NCCCNCCO)c21`: 583 s; `CCS(=O)(=O)Nc1ccc(C2=NN(C(=O)c3ccco3)C(c3cccs3)C2)cc1` (stereo not drawn): 764 s.
As for `CCN1c2cc(Cl)ccc2C(=O)NC12CCN(C(=O)Nc1ccccc1C)CC2`, the RP-LC retention time came out at 837 s.
As for `Cc1ccccc1-c1noc(Cn2c(=O)n(C(C)C)c(=O)c3ccccc32)n1`, the RP-LC retention time was determined as 1160 s.
Compound `Cc1ccccc1CN1C[C@@H]2C(=O)N(Cc3ccc4c(c3)OCO4)C(=O)[C@@H]2C1` registered an RP-LC retention time of 824 s.
For the compound `CCCNC(=O)Cc1cn(CC)c2ncccc12`, the RP-LC retention time is 611 s.
Compound `COCCNC(=O)C1Cn2cccc2C(=O)N1C` (stereo not drawn) showed an RP-LC retention time of 570 s.
`COc1cc([C@@H]2c3cc4c(cc3[C@H](O)[C@@H](CO)[C@@H]2C(=O)NCc2cc(F)ccc2F)OCO4)cc(OC)c1OC`: the RP-LC retention time amounted to 718 s.
`COc1ccc(-c2c(C)noc2NC(C)=O)cc1S(=O)(=O)Nc1ccc(Cl)cc1C`: the RP-LC retention time amounted to 820 s.
The compound `CCc1cccc(NS(=O)(=O)c2cc3n(c2)CCN(CCOC)C3=O)c1` yielded an RP-LC retention time of 750 s.
Consider `CCc1ccccc1NC(=O)C1CCCN(c2ncnc3c2nc2n3CCCCC2)C1` (stereo not drawn), for which the RP-LC retention time came out at 802 s.
The figure for `CCn1cc(S(=O)(=O)Nc2ccccc2OC)c2cccnc21` is 831 s; for `COc1ccc(Cl)cc1NC(=O)NCC(=O)N1CCc2ccccc21` it is 930 s; for `Cc1ccc(Sc2nccnc2N2CCCC(C(=O)NCc3ccc(F)cc3F)C2)cc1` (stereo not drawn) it is 1130 s.
Regarding `Cc1c(Cl)cccc1NC(=O)Cn1c(=O)n(-c2ccc(F)cc2)c(=O)c2c1cc(C)n2C`, the RP-LC retention time is 880 s.
`Cc1cc(NC(=O)CCS(=O)(=O)c2ccc(F)cc2)n(-c2nc3ccccc3s2)n1`: the RP-LC retention time is 1030 s.
Consider `COc1ccc(-c2cc(=O)n(CC(=O)Nc3cccc4nsnc34)cn2)cc1`, for which the RP-LC retention time came to 748 s.
`OCCCCc1nccc2c1[nH]c1ccccc12`: the RP-LC retention time worked out at 628 s.
The figure for `O=C(NCc1ccccc1F)C1CCCN(c2nnc3c(Cl)cccn23)C1` (stereo not drawn) is 710 s; for `c1ccc(-c2nnc(-c3cccnc3)o2)cc1` it is 666 s; for `COc1ccc(Cl)cc1NC(=O)Cn1cccc1-c1nnc(C2CCC2)o1` it is 1040 s.
As to `COc1ccc(-c2nc(-c3ccc4c(c3)ncn4CCN3CCCCC3)no2)cc1`, the RP-LC retention time stood at 658 s.
For `Clc1cc2c(c(CN3CCN(c4ccccc4)CC3)c1)OCOC2`, the RP-LC retention time was determined as 584 s.
`O=C(CSc1ccc(N2CCCC(C(=O)NC3CC3)C2)nn1)Nc1ccc(Cl)cc1F` (stereo not drawn) gave an RP-LC retention time of 700 s.
The figure for `COCC(=O)Nc1ccc2nc(N3CCN(Cc4ccccc4OC)CC3)cc(C(=O)O)c2c1` is 573 s.
For the compound `Cc1ccc(NC(=O)Nc2cccc(-c3ccc(N4CCOCC4)nn3)c2)cc1F`, the RP-LC retention time is 739 s.
Next, `CN1CCN(C(=O)C2CCN(c3nc4ccc(-c5ccc(F)cc5)nc4s3)CC2)CC1`: 674 s; `CN(C)S(=O)(=O)c1ccc2c(c1)N(CC(=O)Nc1ccccn1)C(=O)C1CCCCN21` (stereo not drawn): 795 s; `CCOC(=O)Cc1c(CN2CCN(C)CC2)c2ccccc2n1Cc1ccccc1`: 681 s.
Regarding `COc1ccc(-n2c(=O)c(C(=O)Nc3ccccc3)c(O)c3cccnc32)cc1`, the RP-LC retention time stood at 1200 s.
In turn, `Cc1cc(Nc2nc(N[C@@H](C)c3ccc(F)cc3)c(C#N)cc2F)n[nH]1` had an RP-LC retention time of 877 s.
